Activity calls are given as the source filed them. The calls are words filed in the database; no cut-off is given here.
Key:
MV4-11 [1] = test: Induction of cell cycle arrest at G0/G1 phase in human MV4-11 cells assessed as sub-G0/G1 phase cells at 2 nM incubated for 24 hrs by PI staining based flow cytometric analysis relative to control; type: functional
[2] = molecular target: Tyrosine-protein kinase receptor UFO (Homo sapiens) (UniProt P30530); test: Induction of AXL degradation in human MDA-MB-231 cells at 1 to 10 nM measured upto 20 hrs by immunoblotting analysis; type: cell-based; details: dose 1-10 nM
[3] = molecular target: Leukocyte tyrosine kinase receptor (Homo sapiens) (UniProt P29376); test: Induction of LTK degradation in human Raji cells at 1 to 10 nM measured upto 24 hrs by immunoblotting analysis; type: cell-based; details: dose 1-10 nM
[4] = molecular target: T1, Protein cereblon/Receptor-type tyrosine-protein kinase FLT3 (Homo sapiens, UniProt P36888+Q96SW2); test: PROTAC activity at CRBN/FLT3 in human MV4-11 cells harboring FLT3 ITD mutation assessed as induction of FLT3 degradation at 1 nM measured upto 12 hrs in presence of cycloheximide by immunoblotting analysis; type: cell-based
Target sequence in this assay (P36888 27-993 limits assumed): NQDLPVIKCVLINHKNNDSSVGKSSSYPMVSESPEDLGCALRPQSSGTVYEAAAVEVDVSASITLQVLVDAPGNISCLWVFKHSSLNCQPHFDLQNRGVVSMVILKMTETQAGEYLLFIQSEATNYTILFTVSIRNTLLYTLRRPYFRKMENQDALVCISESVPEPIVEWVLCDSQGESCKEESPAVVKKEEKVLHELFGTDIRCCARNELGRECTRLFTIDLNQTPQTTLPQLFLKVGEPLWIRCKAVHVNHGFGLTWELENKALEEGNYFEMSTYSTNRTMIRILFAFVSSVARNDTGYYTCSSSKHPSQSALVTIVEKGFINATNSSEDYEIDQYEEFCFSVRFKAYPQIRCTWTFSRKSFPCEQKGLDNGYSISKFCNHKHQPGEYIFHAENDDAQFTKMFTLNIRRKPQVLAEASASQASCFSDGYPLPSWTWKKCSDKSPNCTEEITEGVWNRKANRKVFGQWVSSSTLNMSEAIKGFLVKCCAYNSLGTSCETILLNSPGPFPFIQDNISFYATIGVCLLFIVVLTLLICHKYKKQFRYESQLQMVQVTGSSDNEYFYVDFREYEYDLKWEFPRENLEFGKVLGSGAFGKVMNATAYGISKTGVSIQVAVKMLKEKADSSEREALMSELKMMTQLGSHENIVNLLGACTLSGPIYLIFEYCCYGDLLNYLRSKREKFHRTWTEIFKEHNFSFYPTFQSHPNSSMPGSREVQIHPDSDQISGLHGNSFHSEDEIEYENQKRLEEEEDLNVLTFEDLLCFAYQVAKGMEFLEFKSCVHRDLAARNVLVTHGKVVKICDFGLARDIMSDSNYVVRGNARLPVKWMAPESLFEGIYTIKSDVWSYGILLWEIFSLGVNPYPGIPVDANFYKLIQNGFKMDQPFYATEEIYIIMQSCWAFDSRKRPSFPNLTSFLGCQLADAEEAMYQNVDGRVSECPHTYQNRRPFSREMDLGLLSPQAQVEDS
Target sequence in this assay (Q96SW2 whole entry partner): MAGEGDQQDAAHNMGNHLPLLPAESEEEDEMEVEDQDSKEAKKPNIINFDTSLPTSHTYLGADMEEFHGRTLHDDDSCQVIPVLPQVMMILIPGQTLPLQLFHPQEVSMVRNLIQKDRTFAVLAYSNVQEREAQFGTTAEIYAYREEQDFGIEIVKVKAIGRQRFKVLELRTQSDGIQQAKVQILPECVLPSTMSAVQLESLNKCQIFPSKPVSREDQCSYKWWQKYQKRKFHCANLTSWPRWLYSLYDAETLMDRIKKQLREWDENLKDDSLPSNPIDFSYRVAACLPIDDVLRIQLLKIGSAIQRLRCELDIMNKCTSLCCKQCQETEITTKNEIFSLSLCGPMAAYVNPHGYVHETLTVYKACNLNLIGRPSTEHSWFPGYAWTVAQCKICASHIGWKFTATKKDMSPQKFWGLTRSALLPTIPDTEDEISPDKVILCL

MV4-11 [5] = test: Induction of apoptosis in human MV4-11 cells incubated for 48 hrs by Annexin V/7-AAD staining based flow cytometric analysis; type: functional, cell-based; details: dose 0.016-10 nM
MV4-11 [6] = test: Inhibition of PI3K/AKT signaling pathway in human MV4-11 cells assessed as reduction in AKT phosphorylation incubated for 24 hrs by immunoblotting analysis; type: cell-based; details: dose 0.08-50 nM
MV4-11 [7] = test: Antitumor activity against human MV4-11 cells xenografted in NOD/SCID mouse assessed as reduction in tumor volume at 6 mg/kg, ip administered once a day for 21 days; type: functional, organism-based; details: time 21.0 day
MV4-11 [8] = test: Induction of apoptosis in human MV4-11 cells assessed as increase in cleaved caspase 3 level at 2 to 10 nM incubated for 48 hrs by immunoblotting analysis; type: functional, cell-based; details: dose 2-10 nM
[9] = molecular target: T1, Protein cereblon/Receptor-type tyrosine-protein kinase FLT3; test: PROTAC activity at CRBN/FLT3 in human MV4-11 cells harboring FLT3 ITD mutation assessed as induction of FLT3 degradation at 1 nM incubated for 6 hrs in presence of bafilomycin by immunoblotting analysis; type: cell-based
Target sequence in this assay (P36888 27-993 limits assumed): as the sequence (P36888 27-993 limits assumed) above
Target sequence in this assay (Q96SW2 whole entry partner): as the sequence (Q96SW2 whole entry partner) above

MV4-11 [10] = test: Induction of cell cycle arrest at G0/G1 phase in human MV4-11 cells assessed as sub-G0/G1 phase cells at 0.4 nM incubated for 24 hrs by PI staining based flow cytometric analysis relative to control; type: functional
MV4-11 [11] = test: Induction of cell cycle arrest at G0/G1 phase in human MV4-11 cells assessed as G2/M phase cells at 2 nM incubated for 24 hrs by PI staining based flow cytometric analysis relative to control; type: functional
[12] = molecular target: T1, Protein cereblon/Receptor-type tyrosine-protein kinase FLT3; test: PROTAC activity at CRBN/FLT3 in human MV4-11 cells harboring FLT3-ITD mutation assessed as induction of FLT3 degradation by measuring maximal efficacy incubated for 24 hrs by immunoblotting analysis relative to control; type: cell-based
Target sequence in this assay (P36888 27-993 limits assumed): as the sequence (P36888 27-993 limits assumed) above
Target sequence in this assay (Q96SW2 whole entry partner): as the sequence (Q96SW2 whole entry partner) above

[13] = molecular target: T1, Protein cereblon/Receptor-type tyrosine-protein kinase FLT3; test: PROTAC activity at CRBN/FLT3 in human MV4-11 cells harboring FLT3 ITD mutation assessed as induction of FLT3 degradation at 1 nM incubated for 6 hrs in presence of MG132 by immunoblotting analysis; type: cell-based
Target sequence in this assay (P36888 27-993 limits assumed): as the sequence (P36888 27-993 limits assumed) above
Target sequence in this assay (Q96SW2 whole entry partner): as the sequence (Q96SW2 whole entry partner) above

MV4-11 [14] = test: Antiproliferative activity against human MV4-11 cells assessed as inhibition of cell proliferation incubated for 72 hrs by CCK8 assay; type: functional, cell-based; details: MV4-11, 72 h
[15] = molecular target: T1, Protein cereblon/Receptor-type tyrosine-protein kinase FLT3; test: PROTAC activity at CRBN/FLT3 in human MV4-11 cells harboring FLT3 ITD mutation assessed as induction of FLT3 degradation at 1 nM incubated for 6 hrs in presence of lenalidomide by Immunoblotting analysis; type: cell-based
Target sequence in this assay (P36888 27-993 limits assumed): as the sequence (P36888 27-993 limits assumed) above
Target sequence in this assay (Q96SW2 whole entry partner): as the sequence (Q96SW2 whole entry partner) above

MV4-11 [16] = test: Inhibition of JAK/STAT5 signaling pathway in human MV4-11 cells assessed as reduction in STAT5 phosphorylation incubated for 24 hrs by immunoblotting analysis; type: cell-based; details: dose 0.08-50 nM
MV4-11 [17] = test: Potency index, ratio of gilteritinib IC50 to test compound IC50 for antiproliferative activity against human MV4-11 cells assessed as inhibition of cell proliferation incubated for 72 hrs by CCK8 assay; type: functional
MV4-11 [18] = test: Induction of cell cycle arrest at G0/G1 phase in human MV4-11 cells assessed as G0/G1 phase cells at 0.4 nM incubated for 24 hrs by PI staining based flow cytometric analysis relative to control; type: functional
MV4-11 [19] = test: Induction of apoptosis in human MV4-11 cells assessed as increase in cleaved PARP level at 2 to 10 nM incubated for 48 hrs by immunoblotting analysis; type: functional, cell-based; details: dose 2-10 nM
MV4-11 [20] = test: Inhibition of ERK phosphorylation in human MV4-11 cells incubated for 24 hrs by immunoblotting analysis; type: cell-based; details: dose 0.08-50 nM
MV4-11 [21] = test: Induction of cell cycle arrest at G0/G1 phase in human MV4-11 cells assessed as S phase cells at 2 nM incubated for 24 hrs by PI staining based flow cytometric analysis relative to control; type: functional
MV4-11 [22] = test: Induction of apoptosis in human MV4-11 cells assessed as early apoptotic cells at 2 nM incubated for 48 hrs by Annexin V/7-AAD staining based flow cytometric analysis relative to control; type: functional
[23] = molecular target: T1, Protein cereblon/Receptor-type tyrosine-protein kinase FLT3; test: PROTAC activity at CRBN/FLT3 in human MV4-11 cells harboring FLT3-ITD mutation assessed as reduction in FLT3 phosphorylation incubated for 24 hrs by immunoblotting analysis; type: cell-based; details: dose 0.08-50 nM
Target sequence in this assay (P36888 27-993 limits assumed): as the sequence (P36888 27-993 limits assumed) above
Target sequence in this assay (Q96SW2 whole entry partner): as the sequence (Q96SW2 whole entry partner) above

[24] = molecular target: T1, Protein cereblon/Receptor-type tyrosine-protein kinase FLT3; test: PROTAC activity at CRBN/FLT3 in human MV4-11 cells harboring FLT3 ITD mutation assessed as induction of FLT3 degradation at 1 nM incubated for 6 hrs in presence of gilteritinib by immunoblotting analysis; type: cell-based
[25] = molecular target: T1, Protein cereblon/Receptor-type tyrosine-protein kinase FLT3; test: PROTAC activity at CRBN/FLT3 in human MV4-11 cells harboring FLT3-ITD mutation assessed as induction of FLT3 degradation at 1 nM incubated for 2 to 20 hrs by Immunoblotting analysis; type: cell-based; details: time 2-20 hrs
[26] = molecular target: ALK tyrosine kinase receptor (Homo sapiens) (UniProt Q9UM73); test: Induction of ALK degradation in human Raji cells at 1 to 10 nM measured upto 24 hrs by immunoblotting analysis; type: cell-based; details: dose 1-10 nM
MV4-11 [27] = test: Induction of cell cycle arrest at G0/G1 phase in human MV4-11 cells assessed as G0/G1 phase cells at 2 nM incubated for 24 hrs by PI staining based flow cytometric analysis relative to control; type: functional
MV4-11 [28] = test: Induction of apoptosis in human MV4-11 cells assessed as late apoptotic cells at 10 nM incubated for 48 hrs by Annexin V/7-AAD staining based flow cytometric analysis relative to control; type: functional
[29] = molecular target: T1, Protein cereblon/Receptor-type tyrosine-protein kinase FLT3; test: PROTAC activity at CRBN/FLT3 in human MV4-11 cells harboring FLT3-ITD mutation assessed as induction of FLT3 degradation incubated for 24 hrs by immunoblotting analysis; type: cell-based
MV4-11 [30] = test: Induction of apoptosis in human MV4-11 cells assessed as early apoptotic cells at 10 nM incubated for 48 hrs by Annexin V/7-AAD staining based flow cytometric analysis relative to control; type: functional
[31] = Toxicity in NOD/SCID mouse xenografted with human MV4-11 cells assessed as weight loss at 6 mg/kg, ip administered once daily for 21 days; type: organism-based; details: in vivo, 504 h, time 21 day
MV4-11 [32] = test: Induction of cell cycle arrest at G0/G1 phase in human MV4-11 cells assessed as S phase cells at 0.4 nM incubated for 24 hrs by PI staining based flow cytometric analysis relative to control; type: functional
[33] = molecular target: T1, Protein cereblon/Receptor-type tyrosine-protein kinase FLT3; test: PROTAC activity at CRBN/FLT3 in human MV4-11 cells harboring FLT3 ITD mutation assessed as induction of FLT3 degradation at 1 nM incubated for 6 hrs in presence of MLN4924 by immunoblotting analysis; type: cell-based
MV4-11 [34] = test: Induction of apoptosis in human MV4-11 cells assessed as necrotic cells at 10 nM incubated for 48 hrs by Annexin V/7-AAD staining based flow cytometric analysis relative to control; type: functional
MV4-11 [35] = test: Induction of apoptosis in human MV4-11 cells assessed as late apoptotic cells at 2 nM incubated for 48 hrs by Annexin V/7-AAD staining based flow cytometric analysis relative to control; type: functional
MV4-11 [36] = test: Induction of cell cycle arrest at G0/G1 phase in human MV4-11 cells assessed as G2/M phase cells at 0.4 nM incubated for 24 hrs by PI staining based flow cytometric analysis relative to control; type: functional

ALK tyrosine kinase receptor (Homo sapiens), sequence (Q9UM73 19-1620 limits assumed): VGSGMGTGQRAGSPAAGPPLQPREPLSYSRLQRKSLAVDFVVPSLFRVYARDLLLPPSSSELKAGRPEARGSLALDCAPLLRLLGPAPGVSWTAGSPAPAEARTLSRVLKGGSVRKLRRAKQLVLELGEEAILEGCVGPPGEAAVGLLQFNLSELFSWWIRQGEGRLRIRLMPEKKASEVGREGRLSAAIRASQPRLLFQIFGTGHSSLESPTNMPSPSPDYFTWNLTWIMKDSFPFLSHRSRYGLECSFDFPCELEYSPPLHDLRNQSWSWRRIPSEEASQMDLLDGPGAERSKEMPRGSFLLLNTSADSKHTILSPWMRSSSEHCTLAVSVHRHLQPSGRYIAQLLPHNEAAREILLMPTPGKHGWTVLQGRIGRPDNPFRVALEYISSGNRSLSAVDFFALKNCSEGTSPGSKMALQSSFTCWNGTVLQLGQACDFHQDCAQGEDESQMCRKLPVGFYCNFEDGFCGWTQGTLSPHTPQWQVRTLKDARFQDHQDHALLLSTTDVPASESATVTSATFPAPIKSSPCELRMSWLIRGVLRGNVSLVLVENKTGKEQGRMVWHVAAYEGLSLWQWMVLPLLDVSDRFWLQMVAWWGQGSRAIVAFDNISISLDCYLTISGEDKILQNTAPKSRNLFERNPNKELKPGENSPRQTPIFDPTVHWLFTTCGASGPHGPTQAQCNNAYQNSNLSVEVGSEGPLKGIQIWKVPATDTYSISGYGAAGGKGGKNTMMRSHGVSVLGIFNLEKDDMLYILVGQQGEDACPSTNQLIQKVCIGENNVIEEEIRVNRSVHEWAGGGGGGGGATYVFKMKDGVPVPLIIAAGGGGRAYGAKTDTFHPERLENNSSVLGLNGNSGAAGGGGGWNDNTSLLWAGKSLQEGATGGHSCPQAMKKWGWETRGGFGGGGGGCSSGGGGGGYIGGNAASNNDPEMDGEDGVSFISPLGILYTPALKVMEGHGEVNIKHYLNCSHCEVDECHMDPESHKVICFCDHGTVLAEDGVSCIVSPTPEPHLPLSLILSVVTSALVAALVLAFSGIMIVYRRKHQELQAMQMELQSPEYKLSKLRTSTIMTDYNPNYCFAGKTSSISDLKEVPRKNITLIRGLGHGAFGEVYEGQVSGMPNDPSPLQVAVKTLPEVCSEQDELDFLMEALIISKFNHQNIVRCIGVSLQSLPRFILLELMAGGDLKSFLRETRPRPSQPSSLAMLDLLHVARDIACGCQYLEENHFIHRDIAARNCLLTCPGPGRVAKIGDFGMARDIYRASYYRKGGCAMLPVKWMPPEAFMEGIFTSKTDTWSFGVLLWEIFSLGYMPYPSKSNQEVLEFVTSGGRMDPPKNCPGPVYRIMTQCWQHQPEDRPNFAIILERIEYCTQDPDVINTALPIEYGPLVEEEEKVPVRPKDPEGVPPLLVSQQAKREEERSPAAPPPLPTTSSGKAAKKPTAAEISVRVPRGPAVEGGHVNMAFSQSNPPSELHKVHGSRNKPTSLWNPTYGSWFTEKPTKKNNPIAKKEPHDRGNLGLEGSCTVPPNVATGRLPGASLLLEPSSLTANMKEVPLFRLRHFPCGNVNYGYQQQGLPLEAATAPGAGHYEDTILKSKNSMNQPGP
Tyrosine-protein kinase receptor UFO (Homo sapiens), sequence (P30530 whole entry): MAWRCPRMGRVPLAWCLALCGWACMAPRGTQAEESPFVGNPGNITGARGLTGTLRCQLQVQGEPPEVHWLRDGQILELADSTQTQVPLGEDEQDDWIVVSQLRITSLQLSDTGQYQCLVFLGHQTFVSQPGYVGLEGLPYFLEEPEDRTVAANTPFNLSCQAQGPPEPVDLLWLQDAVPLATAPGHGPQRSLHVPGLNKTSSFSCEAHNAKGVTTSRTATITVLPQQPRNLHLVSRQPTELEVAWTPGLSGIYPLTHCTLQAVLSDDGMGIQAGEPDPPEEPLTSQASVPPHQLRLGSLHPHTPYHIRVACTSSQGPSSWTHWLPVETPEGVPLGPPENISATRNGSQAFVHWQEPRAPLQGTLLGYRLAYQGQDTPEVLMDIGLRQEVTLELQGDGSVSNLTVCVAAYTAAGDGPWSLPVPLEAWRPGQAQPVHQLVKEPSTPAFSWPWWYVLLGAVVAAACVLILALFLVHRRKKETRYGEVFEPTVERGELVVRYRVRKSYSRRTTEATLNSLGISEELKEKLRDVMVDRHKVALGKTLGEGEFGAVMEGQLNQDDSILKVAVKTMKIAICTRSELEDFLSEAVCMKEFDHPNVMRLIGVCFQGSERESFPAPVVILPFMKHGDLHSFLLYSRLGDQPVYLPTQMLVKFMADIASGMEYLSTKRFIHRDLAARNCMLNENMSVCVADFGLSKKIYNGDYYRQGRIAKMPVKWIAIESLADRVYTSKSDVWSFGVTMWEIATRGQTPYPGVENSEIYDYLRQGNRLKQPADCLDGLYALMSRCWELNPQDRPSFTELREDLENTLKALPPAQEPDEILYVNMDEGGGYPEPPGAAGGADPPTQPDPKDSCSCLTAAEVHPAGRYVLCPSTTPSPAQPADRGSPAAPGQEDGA

Compound: CCc1nc(C(N)=O)c(Nc2ccc(N3CCC(N4CCN(C(=O)COc5cccc6c5CN(C5CCC(=O)NC5=O)C6=O)CC4)CC3)c(OC)c2)nc1NC1CCOCC1 (configuration not stated)
- Activity (MV4-11 [1]): 6.8%
- Activity [2]: inactive
- Activity [3]: inactive
- Activity [4]: Active
- Activity (MV4-11 [5]): Dose-Dependent Effect
- inhibition (MV4-11 [6]): Dose-Dependent Effect
- Activity (MV4-11 [7]): Active
- Activity (MV4-11 [8]): Active
- Activity [9]: Active
- Activity (MV4-11 [10]): 2.4%
- Activity (MV4-11 [11]): 8.1%
- Emax [12]: 94.8%
- Activity [13]: inactive
- IC50 (MV4-11 [14]): 1.5 nM
- Activity [15]: inactive
- inhibition (MV4-11 [16]): Dose-Dependent Effect
- Ratio IC50 (MV4-11 [17]): 4.6
- Activity (MV4-11 [18]): 79.8%
- Activity (MV4-11 [19]): Active
- inhibition (MV4-11 [20]): Dose-Dependent Effect
- Activity (MV4-11 [21]): 2.9%
- Activity (MV4-11 [22]): 2.8%
- Activity [23]: Active
- Activity [24]: inactive
- Activity [25]: Active
- Activity [26]: inactive
- Activity (MV4-11 [27]): 82.1%
- Activity (MV4-11 [28]): 33.1%
- Activity [29]: Dose-Dependent Effect
- DC50 [29]: 0.64 nM
- Activity (MV4-11 [30]): 3.4%
- Activity [31]: Non-Toxic
- Activity (MV4-11 [32]): 5.6%
- Activity [33]: inactive
- Activity (MV4-11 [34]): 15.9%
- Activity (MV4-11 [35]): 24.8%
- Activity (MV4-11 [36]): 12.1%

Reference: ChEMBL document CHEMBL5537128, “Discovery of LWY713 as a potent and selective FLT3 PROTAC degrader with in vivo activity against acute myeloid leukemia” (Eur J Med Chem, 2024)
